In US6407042B1 (Monsanto Technology LLC, priority 1996, dated 2002):

Legend:
[1] = test system: Velvetleaf (Abutilon theophrasti, ABUTH); experiment: Greenhouse test of herbicidal effectiveness (percent inhibition) on velvetleaf; assay type: in vivo
Source text: (§1) The herbicidal effectiveness data set forth herein report “inhibition” as a percentage following a standard procedure in the art which reflects a visual assessment of plant mortality and growth reduction by comparison with untreated plants, made by technicians specially trained to make and record such observations. In all cases, a single technician makes all assessments of percent inhibition within any one experiment or trial. Such measurements are relied upon and regularly reported by Monsanto Company in the course of its herbicide business.
(§2) The following procedure was used for testing compositions of the Examples to determine herbicidal effectiveness, except where otherwise indicated.
(§3) Seeds of the plant species indicated were planted in 85 mm square pots in a soil mix which was previously steam sterilized and prefertilized with a 14-14-14 NPK slow release fertilizer at a rate of 3.6 kg/m3. The pots were placed in a greenhouse with subirrigation. About one week after emergence, seedlings were thinned as needed, including removal of any unhealthy or abnormal plants. to create a uniform series of test pots.
(§4) The plants were maintained for the duration of the test in the greenhouse where they received a minimum of 14 hours of light per day. If natural light was insufficient to achieve the daily requirement, artificial light with an intensity of approximately 475 microeinsteins was used to make up the difference. Exposure temperatures were not precisely controlled but averaged about 27° C. during the day and about 18° C. during the night. Plants were sub-irrigated throughout the test to ensure adequate soil moisture levels.
(§5) A set of pots was left untreated as a reference against which effects of the treatments could later be evaluated.
(§6) Application of glyphosate compositions was made by spraying with a track sprayer fitted with a 9501E nozzle calibrated to deliver a spray volume of 93 liters per hectare (l/ha) at a pressure of 166 kilopascals (kPa). After treatment, pots were returned to the greenhouse until ready for evaluation.
(§7) Treatments were made using dilute aqueous compositions. These could be prepared as spray compositions directly from their ingredients, or by dilution with water of preformulated concentrate compositions.
(§8) For evaluation of herbicidal effectiveness, all plants in the test were examined by a single practiced technician, who recorded percent inhibition, a visual measurement of the effectiveness of each treatment by comparison with untreated plants.

[2] = test system: Japanese millet (Echinochloa crus-galli, ECHCF); experiment: Greenhouse test of herbicidal effectiveness (percent inhibition) on Japanese millet; assay type: in vivo
Source text: as §1, §2, §3, §4, §5, §6, §7, §8

[3] = test system: Prickly sida (Sida spinosa, SIDSP); experiment: Greenhouse test of herbicidal effectiveness (percent inhibition) on prickly sida; assay type: in vivo; conditions: for % Inhibition SIDSP: evaluation 10 days after application
Source text: as §1, §2, §3, §4, §5, §6, §7, §8

[4] = test system: Hemp sesbania (Sesbania exaltata, SEBEX); experiment: Greenhouse test of herbicidal effectiveness (percent inhibition) on hemp sesbania; assay type: in vivo; conditions: Example 18; 21 days after application
Source text: as §2, §3
(§9) The plants were maintained for the duration of the test in the greenhouse where they received a minimum of 14 hours of light per day. […]
as §5
as §6, with “evaluation. […]” for “evaluation.”
as §8

[5] = test system: Common lambsquarter (Chenopodium album, CHEAL); experiment: Greenhouse test of herbicidal effectiveness (percent inhibition) on common lambsquarter; assay type: in vivo; conditions: Example 20; 18 days after application
Source text: as §2, §3, §9, §5
as §6, with “evaluation. […]” for “evaluation.”
as §8

ABUTH and ECHCF = experiment: Greenhouse test, herbicidal effectiveness overall on both species of the Example; assay type: in vivo, Abutilon theophrasti, Echinochloa crus-galli; conditions: post-emergence foliar spray 93 l/ha, comparison as worded in the discussion of the Example
Protocol: The following procedure was used for testing compositions of the Examples to determine herbicidal effectiveness, except where otherwise indicated. […] The pots were placed in a greenhouse with subirrigation. About one week after emergence, seedlings were thinned as needed, including removal of any unhealthy or abnormal plants. to create a uniform series of test pots. The plants were maintained for the duration of the test in the greenhouse where they received a minimum of 14 hours of light per day. […] Exposure temperatures were not precisely controlled but averaged about 27° C. during the day and about 18° C. during the night. Plants were sub-irrigated throughout the test to ensure adequate soil moisture levels. Pots were assigned to different treatments in a fully randomized experimental design with 3 replications. A set of pots was left untreated as a reference against which effects of the treatments could later be evaluated. […] After treatment, pots were returned to the greenhouse until ready for evaluation. Treatments were made using dilute aqueous compositions. […] For evaluation of herbicidal effectiveness, all plants in the test were examined by a single practiced technician, who recorded percent inhibition, a visual measurement of the effectiveness of each treatment by comparison with untreated plants.

[6] = acifluorfen rate 25 g a.i./ha, evaluation 10 days after application
[7] = acifluorfen rate 50 g a.i./ha, evaluation 10 days after application
[8] = acifluorfen rate 100 g a.i./ha, evaluation 10 days after application
[9] = acifluorfen rate 200 g a.i./ha, evaluation 10 days after application
[10] = dicamba rate 25 g a.i./ha, evaluation 17 days after application
[11] = dicamba rate 50 g a.i./ha, evaluation 17 days after application
[12] = dicamba rate 100 g a.i./ha, evaluation 17 days after application
[13] = dicamba rate 200 g a.i./ha, evaluation 17 days after application

For `O=C(O)c1cc(Oc2ccc(C(F)(F)F)cc2Cl)ccc1[N+](=O)[O-]` [Acifluorfen (technical)], the “% Inhibition ABUTH” value [1, 6] was 20%, the “% Inhibition ABUTH” value [1, 7] was 32% and the “% Inhibition ABUTH” value [1, 8] was 52%. The “% Inhibition ABUTH” value [1, 9] was 62%, the “% Inhibition ECHCF” value [2, 6] was 2% and the “% Inhibition ECHCF” value [2, 7] was 7%. The “% Inhibition ECHCF” value [2, 8] was 18%, the “% Inhibition ECHCF” value [2, 9] was 35% and the “% Inhibition SIDSP” value ([3]; acifluorfen rate 25 g a.i./ha) was 15%. The “% Inhibition SIDSP” value ([3]; acifluorfen rate 50 g a.i./ha) was 17%, the “% Inhibition SIDSP” value ([3]; acifluorfen rate 100 g a.i./ha) was 35% and the “% Inhibition SIDSP” value ([3]; acifluorfen rate 200 g a.i./ha) was 40%.

With `C[N+](C)(C)CCCNS(=O)(=O)C(F)(F)C(F)(F)C(F)(F)C(F)(F)C(F)(F)C(F)(F)C(F)(F)C(F)(F)F.[I-]` [Fluorad FC-135, 3-(((heptadecafluorooctyl)sulfonyl)amino)-N,N,N-trimethyl-1-propaminium iodide] the “concentration of Fluorad FC-135 added in tank-mix to Formulation B to bring its herbicidal performance up to that of Formulation C” value (“concentration of Fluorad FC-135 added” below) ([1]; Example 21, ABUTH, evaluation 20 days after application) was about 0.02%, the optimum adjuvant concentration ([1]; Example 25, tank-mix adjuvant for glyphosate as Formulation B, ABUTH, 21 days after application) was 0.2% and the “concentration of Fluorad FC-135 added” value ([2]; Example 21, ECHCF, evaluation 20 days after application) was “approximately 0.25%”. For the same molecule, the optimum adjuvant concentration ([2]; Example 25, tank-mix adjuvant for glyphosate as Formulation B, ECHCF, 21 days after application) was 0.2% and the “concentration of Fluorad FC-135 added” value ([3]; Example 21, SIDSP, evaluation 20 days after application) was about 0.1%.

`O=C(O)CNCP(=O)(O)O` [glyphosate, N-phosphonomethylglycine] was tested, and the “herbicidal activity on SEBEX, result in words” value [4] was “extremely weak” and the “herbicidal activity on CHEAL, result in words” value [5] was “very weak”.

With `COC(=O)NS(=O)(=O)c1ccc(N)cc1` [Asulam (technical)] the “% Inhibition ECHCF” value ([2]; asulam rate 200 g a.i./ha, evaluation 14 days after application) was 12%.

`COc1c(Cl)ccc(Cl)c1C(=O)O` [Dicamba (technical)] was tested, and the “% Inhibition ABUTH” value [1, 10] was 47%, the “% Inhibition ABUTH” value [1, 11] was 63% and the “% Inhibition ABUTH” value [1, 12] was 82%. For the same molecule, the “% Inhibition ABUTH” value [1, 13] was 93%, the “% Inhibition ECHCF” value [2, 10] was 0% and the “% Inhibition ECHCF” value [2, 11] was 0%. For the same molecule, the “% Inhibition ECHCF” value [2, 12] was 0% and the “% Inhibition ECHCF” value [2, 13] was 5%.

`C[n+]1ccc(-c2cc[n+](C)cc2)cc1` [Paraquat dichloride] was tested, and the inhibition at 25 g/ha ([1]; Abutilon theophrasti, 288 h, Table 82, paraquat rate 25 g a.i./ha, evaluation 12 days after application) was 50%, the inhibition at 50 g/ha ([1]; Abutilon theophrasti, 288 h, Table 82, paraquat rate 50 g a.i./ha, evaluation 12 days after application) was 57% and the inhibition at 100 g/ha ([1]; Abutilon theophrasti, 288 h, Table 82, paraquat rate 100 g a.i./ha, evaluation 12 days after application) was 73%. It also gave an inhibition at 200 g/ha ([1]; Abutilon theophrasti, 288 h, Table 82, paraquat rate 200 g a.i./ha, evaluation 12 days after application) of 85%, an inhibition at 25 g/ha ([2]; Echinochloa crus-galli, 288 h, Table 82, paraquat rate 25 g a.i./ha, evaluation 12 days after application) of 83% and an inhibition at 50 g/ha ([2]; Echinochloa crus-galli, 288 h, Table 82, paraquat rate 50 g a.i./ha, evaluation 12 days after application) of 78%. The inhibition at 100 g/ha ([2]; Echinochloa crus-galli, 288 h, Table 82, paraquat rate 100 g a.i./ha, evaluation 12 days after application) was 84%, the inhibition at 200 g/ha ([2]; Echinochloa crus-galli, 288 h, Table 82, paraquat rate 200 g a.i./ha, evaluation 12 days after application) was 95% and the inhibition at 25 g/ha ([3]; Sida spinosa, 288 h, Table 82, paraquat rate 25 g a.i./ha, evaluation 12 days after application) was 55%. For the same molecule, the inhibition at 50 g/ha ([3]; Sida spinosa, 288 h, Table 82, paraquat rate 50 g a.i./ha, evaluation 12 days after application) was 60%, the inhibition at 100 g/ha ([3]; Sida spinosa, 288 h, Table 82, paraquat rate 100 g a.i./ha, evaluation 12 days after application) was 69% and the inhibition at 200 g/ha ([3]; Sida spinosa, 288 h, Table 82, paraquat rate 200 g a.i./ha, evaluation 12 days after application) was 99%.

With Steareth-20 the “herbicidal effectiveness overall (ABUTH and ECHCF), result in words” value (ABUTH and ECHCF) was “more effective additives for Formulation B than steareth-10”.

With ceteareth-30 the “herbicidal effectiveness overall (ABUTH and ECHCF), result in words” value (ABUTH and ECHCF) was “more effective additives for Formulation B than steareth-10”.
